Laboratory results taken from PMC6331893, “Autodisplay of Human Hyaluronidase Hyal-1 on Escherichia coli and Identification of Plant-Derived Enzyme Inhibitors” (Molecules, 2015).
pIC50: −log10 of the molar value. Read-outs that look alike come from different tables or passages of the source.

Target: T1, human hyaluronidase Hyal-1 (Homo sapiens, UniProt Q12794)
T1 construct: gene HYAL1
T1 sequence (Q12794 22-435): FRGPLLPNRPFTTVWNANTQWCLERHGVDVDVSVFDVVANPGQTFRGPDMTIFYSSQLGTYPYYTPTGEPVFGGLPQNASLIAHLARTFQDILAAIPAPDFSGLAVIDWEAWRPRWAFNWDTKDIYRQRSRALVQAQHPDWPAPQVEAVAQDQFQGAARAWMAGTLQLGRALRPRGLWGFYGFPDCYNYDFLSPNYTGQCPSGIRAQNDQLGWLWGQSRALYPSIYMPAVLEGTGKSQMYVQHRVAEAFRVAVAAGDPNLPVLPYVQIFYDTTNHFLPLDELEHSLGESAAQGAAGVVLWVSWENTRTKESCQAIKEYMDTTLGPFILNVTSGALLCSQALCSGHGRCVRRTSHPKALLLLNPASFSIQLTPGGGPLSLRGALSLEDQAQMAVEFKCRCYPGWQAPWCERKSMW
Assay: whole-cell "stains-all" hyaluronidase activity assay with surface-displayed Hyal-1, dose-response
Format: cell-based

Molecule | pIC50 (read-out: IC50 Value) | pIC50
C[C@@H]1O[C@@H](O[C@H]2[C@H](OC(=O)[C@]34CCC(C)(C)C[C@H]3C3=CC[C@@H]5[C@@]6(C)CC[C@H](O[C@H]7O[C@H](C(=O)O)[C@@H](O)[C@H](O[C@@H]8OC[C@@H](O)[C@H](O)[C@H]8O)[C@H]7O[C@@H]7O[C@H](CO)[C@H](O)[C@H](O)[C@H]7O)[C@@](C)(C=O)[C@@H]6CC[C@@]5(C)[C@]3(C)CC4)O[C@H](C)[C@H](O[C@@H]3O[C@H](C)[C@@H](O)[C@H](O)[C@H]3O)[C@@H]2O)[C@H](O)[C@H](O)[C@H]1O[C@@H]1OC[C@@H](O)[C@H](O[C@@H]2OC[C@@H](O)[C@H](O)[C@H]2O)[C@H]1O [SA1641] | 3.53 | –
CC1(C)[C@@H](O[C@H]2O[C@H](C(=O)O)[C@@H](O)[C@H](O)[C@H]2O[C@@H]2O[C@H](C(=O)O)[C@@H](O)[C@H](O)[C@H]2O)CC[C@]2(C)[C@H]3C(=O)C=C4[C@@H]5C[C@@](C)(C(=O)O)CC[C@]5(C)CC[C@@]4(C)[C@]3(C)CC[C@@H]12 [glycyrrhizic acid] | – | 3.75
gypsophila saponin 2 | 3.97 | –
